Results: PubChem BioAssay (NCI)
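Step 1: Grow cells in 96-well plates. Step 2: Expose to compound for 48 hours at 5 concentrations. Step 3: Interpolate endpoints linearly; if unreached, use highest concentration. The concentration for full growth arrest is given as TGI.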

Tests used:
Test in all cases: NCI-60 cell line screen, 48 h
HOP-62 NSCLC = system: HOP-62 NSCLC
T-47D breast = system: T-47D breast
SF-295 CNS = system: SF-295 CNS
SR leukemia = system: SR leukemia
SK-OV-3 ovarian = system: SK-OV-3 ovarian
HT29 colon = system: HT29 colon
HCC-2998 colon = system: HCC-2998 colon
OVCAR-3 ovarian = system: OVCAR-3 ovarian
TK-10 renal = system: TK-10 renal
SNB-19 CNS = system: SNB-19 CNS
SN12C renal = system: SN12C renal
UACC-257 melanoma = system: UACC-257 melanoma
PC-3 prostate = system: PC-3 prostate
786-0 renal = system: 786-0 renal
EKVX NSCLC = system: EKVX NSCLC
NCI-H460 lung = system: NCI-H460 lung
MDA-MB-435 = system: MDA-MB-435
SK-MEL-2 melanoma = system: SK-MEL-2 melanoma
K-562 leukemia = system: K-562 leukemia
SNB-75 CNS = system: SNB-75 CNS
HS 578T breast = system: HS 578T breast
NCI-H226 lung = system: NCI-H226 lung
MDA-N = system: MDA-N
COLO 205 colon = system: COLO 205 colon
RPMI-8226 leukemia = system: RPMI-8226 leukemia
MCF7 breast = system: MCF7 breast
M14 melanoma = system: M14 melanoma
HL-60(TB) leukemia = system: HL-60(TB) leukemia
MALME-3M melanoma = system: MALME-3M melanoma
MDA-MB-231 breast = system: MDA-MB-231 breast
OVCAR-8 ovarian = system: OVCAR-8 ovarian
HOP-92 NSCLC = system: HOP-92 NSCLC
NCI-H522 lung = system: NCI-H522 lung
CCRF-CEM leukemia = system: CCRF-CEM leukemia
SF-268 CNS = system: SF-268 CNS
RXF 393 renal = system: RXF 393 renal
KM12 colon = system: KM12 colon
SF-539 CNS = system: SF-539 CNS
A498 renal = system: A498 renal
A549 NSCLC = system: A549 NSCLC
SW-620 colon = system: SW-620 colon
DU-145 prostate = system: DU-145 prostate
MOLT-4 leukemia = system: MOLT-4 leukemia
OVCAR-5 ovarian = system: OVCAR-5 ovarian
ACHN renal = system: ACHN renal
SK-MEL-5 melanoma = system: SK-MEL-5 melanoma
SK-MEL-28 melanoma = system: SK-MEL-28 melanoma
LOX IMVI melanoma = system: LOX IMVI melanoma
HCT-15 colon = system: HCT-15 colon
NCI/ADR-RES ovarian = system: NCI/ADR-RES ovarian
UO-31 renal = system: UO-31 renal
NCI-H23 lung = system: NCI-H23 lung
CAKI-1 renal = system: CAKI-1 renal
HCT-116 colon = system: HCT-116 colon
UACC-62 melanoma = system: UACC-62 melanoma
U251 CNS = system: U251 CNS
BT-549 breast = system: BT-549 breast
IGROV1 ovarian = system: IGROV1 ovarian
OVCAR-4 ovarian = system: OVCAR-4 ovarian

## C/C(=N\OCC(O)CNCCSCc1ccccc1)c1ccccc1Cl (stereo not drawn)
HOP-62 NSCLC
  TGI: 38.8 µM
T-47D breast
  TGI: 48.6 µM
SF-295 CNS
  TGI: 36.2 µM
SR leukemia
  TGI: 78.3 µM
SK-OV-3 ovarian
  TGI: 35.4 µM
HT29 colon
  TGI: 41.4 µM
HCC-2998 colon
  TGI: 40.9 µM
OVCAR-3 ovarian
  TGI: 34.6 µM
TK-10 renal
  TGI: 35.3 µM
SNB-19 CNS
  TGI: 39.7 µM
SN12C renal
  TGI: 34.8 µM
UACC-257 melanoma
  TGI: 35.6 µM
PC-3 prostate
  TGI: 36.2 µM
786-0 renal
  TGI: 46.3 µM
EKVX NSCLC
  TGI: 40.6 µM
NCI-H460 lung
  TGI: 52.3 µM
MDA-MB-435
  TGI: 34.4 µM
SK-MEL-2 melanoma
  TGI: 62.7 µM
K-562 leukemia
  TGI: 92.9 µM
SNB-75 CNS
  TGI: 39.9 µM
HS 578T breast
  TGI: 89.5 µM
NCI-H226 lung
  TGI: 35.4 µM
MDA-N
  TGI: 37.4 µM
COLO 205 colon
  TGI: 38.4 µM
RPMI-8226 leukemia
  TGI: 43.4 µM
MCF7 breast
  TGI: 44.6 µM
M14 melanoma
  TGI: 48 µM
HL-60(TB) leukemia
  TGI: 50.1 µM
MALME-3M melanoma
  TGI: 37.2 µM
MDA-MB-231 breast
  TGI: 35 µM
OVCAR-8 ovarian
  TGI: 32 µM
HOP-92 NSCLC
  TGI: 28.4 µM
NCI-H522 lung
  TGI: 52.8 µM
CCRF-CEM leukemia
  TGI: 72.9 µM
SF-268 CNS
  TGI: 34.6 µM
RXF 393 renal
  TGI: 37 µM
KM12 colon
  TGI: 40.2 µM
SF-539 CNS
  TGI: 36.9 µM
A498 renal
  TGI: 31.9 µM
A549 NSCLC
  TGI: 45.6 µM
SW-620 colon
  TGI: 40.6 µM
DU-145 prostate
  TGI: 52.2 µM
MOLT-4 leukemia
  TGI: > 100 µM
OVCAR-5 ovarian
  TGI: 37.9 µM
ACHN renal
  TGI: 37.8 µM
SK-MEL-5 melanoma
  TGI: 33.4 µM
SK-MEL-28 melanoma
  TGI: 37.5 µM
LOX IMVI melanoma
  TGI: 36.5 µM
HCT-15 colon
  TGI: 41.1 µM
NCI/ADR-RES ovarian
  TGI: 41 µM
UO-31 renal
  TGI: 32.4 µM
NCI-H23 lung
  TGI: > 100 µM
CAKI-1 renal
  TGI: 34.6 µM
HCT-116 colon
  TGI: 54.7 µM
UACC-62 melanoma
  TGI: 34.4 µM

## CC(=O)Nc1ccc(C(=O)NN2C(=O)CSC2c2ccc(O)cc2)cc1 (stereo not drawn)
HOP-62 NSCLC
  TGI: > 100 µM
T-47D breast
  TGI: > 100 µM
SF-295 CNS
  TGI: > 100 µM
U251 CNS
  TGI: > 100 µM
SK-OV-3 ovarian
  TGI: > 100 µM
HT29 colon
  TGI: > 100 µM
HCC-2998 colon
  TGI: > 100 µM
OVCAR-3 ovarian
  TGI: > 100 µM
TK-10 renal
  TGI: > 100 µM
SNB-19 CNS
  TGI: > 100 µM
SN12C renal
  TGI: > 100 µM
UACC-257 melanoma
  TGI: > 100 µM
786-0 renal
  TGI: > 100 µM
EKVX NSCLC
  TGI: > 100 µM
NCI-H460 lung
  TGI: > 100 µM
MDA-MB-435
  TGI: > 100 µM
SK-MEL-2 melanoma
  TGI: > 100 µM
K-562 leukemia
  TGI: > 100 µM
SNB-75 CNS
  TGI: > 100 µM
HS 578T breast
  TGI: > 100 µM
NCI-H226 lung
  TGI: > 100 µM
MDA-N
  TGI: > 100 µM
COLO 205 colon
  TGI: > 100 µM
RPMI-8226 leukemia
  TGI: > 100 µM
MCF7 breast
  TGI: > 100 µM
M14 melanoma
  TGI: > 100 µM
HL-60(TB) leukemia
  TGI: > 100 µM
MDA-MB-231 breast
  TGI: > 100 µM
OVCAR-8 ovarian
  TGI: > 100 µM
HOP-92 NSCLC
  TGI: > 100 µM
CCRF-CEM leukemia
  TGI: > 100 µM
SF-268 CNS
  TGI: > 100 µM
RXF 393 renal
  TGI: > 100 µM
KM12 colon
  TGI: > 100 µM
SF-539 CNS
  TGI: > 100 µM
A498 renal
  TGI: > 100 µM
A549 NSCLC
  TGI: > 100 µM
SW-620 colon
  TGI: > 100 µM
DU-145 prostate
  TGI: > 100 µM
MOLT-4 leukemia
  TGI: > 100 µM
BT-549 breast
  TGI: > 100 µM
IGROV1 ovarian
  TGI: > 100 µM
OVCAR-5 ovarian
  TGI: > 100 µM
ACHN renal
  TGI: > 100 µM
SK-MEL-5 melanoma
  TGI: > 100 µM
SK-MEL-28 melanoma
  TGI: > 100 µM
HCT-15 colon
  TGI: > 100 µM
NCI/ADR-RES ovarian
  TGI: > 100 µM
OVCAR-4 ovarian
  TGI: > 100 µM
UO-31 renal
  TGI: > 100 µM
NCI-H23 lung
  TGI: > 100 µM
HCT-116 colon
  TGI: > 100 µM
UACC-62 melanoma
  TGI: > 100 µM
